Results published in patent US10941152B2, “Pyrazole compounds as modulators of FSHR and uses thereof” (TOCOPHERX, INC., priority 2014, dated 2021).
pEC50: −log10 of the molar value.

Biological target: T1, FSHR (Homo sapiens, UniProt P23945)
T1 construct: expressed in transfected cells; host or cells: CHO (Cho-FSHR-LUC-1-1-43)
T1 sequence (P23945 18-695): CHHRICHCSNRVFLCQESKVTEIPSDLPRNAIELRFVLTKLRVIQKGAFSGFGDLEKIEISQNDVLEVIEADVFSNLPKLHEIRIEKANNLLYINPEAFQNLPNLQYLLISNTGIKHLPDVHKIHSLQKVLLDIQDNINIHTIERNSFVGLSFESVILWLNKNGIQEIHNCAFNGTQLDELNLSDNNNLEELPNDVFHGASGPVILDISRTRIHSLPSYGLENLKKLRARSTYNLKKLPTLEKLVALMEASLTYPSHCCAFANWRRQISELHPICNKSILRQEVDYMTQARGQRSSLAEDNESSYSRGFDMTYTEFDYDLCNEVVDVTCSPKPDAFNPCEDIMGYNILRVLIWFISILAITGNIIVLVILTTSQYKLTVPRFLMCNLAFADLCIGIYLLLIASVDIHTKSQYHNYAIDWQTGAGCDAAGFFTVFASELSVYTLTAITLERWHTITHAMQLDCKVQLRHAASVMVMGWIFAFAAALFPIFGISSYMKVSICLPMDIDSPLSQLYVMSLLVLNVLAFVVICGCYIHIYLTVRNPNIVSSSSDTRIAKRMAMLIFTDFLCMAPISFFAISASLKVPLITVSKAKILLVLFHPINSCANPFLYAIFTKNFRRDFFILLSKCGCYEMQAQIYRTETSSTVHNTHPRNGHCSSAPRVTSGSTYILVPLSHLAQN
Assay: EC50 of cyclic AMP production in CHO FSHR cells + EC20 FSH (Assay A)
Format: cell-based
Details: cyclic AMP production in CHO FSHR cells + EC20 FSH (0.265 pM), HTRF
Experimental: Example 24. EC50 of cyclic AMP production in CHO FSHR cells+EC20 FSH (Assay A)
2500 Cho-FSHR-LUC-1-1-43 cells were plated per well in 5 al of phenol red free DMEM/F12+1% FBS. Cells were plated in 384 well, solid white low volume plates (Greiner 784075) by Multidrop. Cells were assayed by adding 100 al of 2×EC20 FSH/IBMX in DMEM/F12+0.1% BSA) by Multidrop to 2 al of test compound stamped in 384 well plates (compounds are diluted 1:50). The final FSH concentration was 0.265 pM, and the final IBMX concentration was 200 μM. The compound plate map was as follows: Column 1: 2 μl of DMSO; Column 2: 2 μl of DMSO; Columns 3-12 and 13-24: 2 μl of test compound, diluted 1:4 in 100% DMSO, or 2 μl of FSH, diluted 1:4 in DMEM/F12+0.1% BSA. The starting concentration for FSH was 50 nM (final concentration was 0.5 nM). Furthermore, Column 23 contained 2 μl of EC100 FSH reference (100×) (diluted in DMEM/F12+0.1% BSA) at a final concentration of 0.5 nM, and Column 24 contained 2 μl of 1 mM AS707664/2 reference compound 2. 5 μl of compound+EC20 FSH mixture were transferred to cell plates (1:2 dilution into 5 μl of cell media) The plates were incubated at 37° C. for 1 h. 10 μl of mixed HTRF (CisBio #62AM4PEC) reagents were added per well and incubated at room temperature for 1 h. The plates were read on Envision using the cAMP HTRF—low volume 384 well protocol. The readout was the calculated fluorescence ratio (665 nm/620 nm). Values given in percent (%) indicate the percental effect (response) at a certain concentration of agonist relative to the maximum response of the FSH standard.

With CCOC(=O)[C@@H]1C[C@@H]1c1cc2c(cc1OC)OCc1c(C(=O)N(C)C(C)(C)C)nn(-c3cc(Cl)cc(Cl)c3)c1-2 (racemic) [Compound 197, (1RS,2SR)-ethyl 2-(3-(tert-butyl(methyl)carbamoyl)-1-(3,5-dichlorophenyl)-7-methoxy-1,4-dihydrochromeno[4,3-c]pyrazol-8-yl)cyclopropanecarboxylate] as the compound, how does the pEC50 read?
The pEC50 was 7.00 to 8.00.

COc1cc2c(cc1[C@H]1C[C@@H]1C(=O)O)-c1c(c(C(=O)N(C)C(C)(C)C)nn1-c1cc(F)cc(F)c1)CO2 (racemic) [Compound 205] was tested. Which pEC50 did it give?
Its pEC50 is 7.00 to 8.00.

COC(=O)[C@H]1C[C@@H]1c1cc2c(cc1OC)OCc1c(C(=O)N(C)C(C)(C)C)nn(-c3cc(F)cc(F)c3)c1-2 (racemic) [Compound 206] was tested. Which pEC50 did it give?
Its pEC50 is > 8.00.

COc1cc2c(cc1-c1cnn(CC(O)CO)c1)-c1c(c(C(=O)N(C)C(C)(C)C)nn1-c1cc(Cl)cc(Cl)c1)CO2 (single isomer, unassigned) [Compound 192, N-tert-butyl-1-(3,5-dichlorophenyl)-8-(1-(2,3-dihydroxypropyl)-1H-pyrazol-4-yl)-7-methoxy-N-methyl-1,4-dihydrochromeno[4,3-c]pyrazole-3-carboxamide] was tested. Which pEC50 did it give?
Its pEC50 is 6.30 to 7.00.

With COc1cc2c(cc1-c1ccccn1)-c1c(c(C(=O)N3CCOCC3(C)C)nn1-c1cc(Cl)cc(Cl)c1)CO2 [Compound 11, (1-(3,5-dichlorophenyl)-7-methoxy-8-(pyridin-2-yl)-1,4-dihydrochromeno[4,3-c]pyrazol-3-yl)(3,3-dimethylmorpholino)methanone] as the compound, how does the pEC50 read?
The pEC50 was > 8.00.

COc1cc2c(cc1-c1ccn(C)n1)-c1c(c(C(=O)N3CCS(=O)(=O)CC3(C)C)nn1-c1cc(Cl)cc(Cl)c1)CO2 [Compound 13, 4-{[1-(3,5-dichlorophenyl)-7-methoxy-8-(1-methyl-1H-pyrazol-3-yl)-1H,4H-chromeno[4,3-c]pyrazol-3-yl]carbonyl}-3,3-dimethyl-1l{6},4-thiomorpholine-1,1-dione] was tested. Which pEC50 did it give?
Its pEC50 is 7.00 to 8.00.

COc1cc2c(cc1-c1cnoc1C)-c1c(c(C(=O)N(C)C(C)(C)C)nn1-c1cc(Cl)cc(Cl)c1)CO2 [Compound 15, N-tert-butyl-1-(3,5-dichlorophenyl)-7-methoxy-N-methyl-8-(5-methylisoxazol-4-yl)-1,4-dihydrochromeno[4,3-c]pyrazole-3-carboxamide] was tested. Which pEC50 did it give?
The pEC50 was > 8.00.

COc1cc(Cl)cc(-n2nc(C(=O)N(C)C(C)(C)C)c3c2-c2cc(-c4cncc(C#N)c4)c(OC)cc2OC3)c1 [Compound 35, N-tert-butyl-1-(3-chloro-5-methoxyphenyl)-8-(5-cyanopyridin-3-yl)-7-methoxy-N-methyl-1,4-dihydrochromeno[4,3-c]pyrazole-3-carboxamide] was tested. Which pEC50 did it give?
The pEC50 was > 8.00.

How did the pEC50 turn out when COc1cc(OC)cc(-n2nc(C(=O)N3CC[S+]([O-])CC3(C)C)c3c2-c2cc(-c4cncc(C)c4)c(OC)cc2OC3)c1 (centres unmarked) [Compound 45, (1-(3,5-dimethoxyphenyl)-7-methoxy-8-(5-methylpyridin-3-yl)-1,4-dihydrochromeno[4,3-c]pyrazol-3-yl)(S-oxo-3,3-dimethylthiomorpholino)methanone] was run?
The pEC50 was > 8.00.

How did the pEC50 turn out when COc1cc(OC)cc(-n2nc(C(=O)N3CCOCC3(C)C)c3c2-c2cc(-c4ccccn4)c(OC)cc2OC3)c1 [Compound 47, (1-(3,5-dimethoxyphenyl)-7-methoxy-8-(pyridin-2-yl)-1,4-dihydrochromeno[4,3-c]pyrazol-3-yl)(3,3-dimethylmorpholino)methanone] was run?
Its pEC50 is 7.00 to 8.00.

COc1cc(OC)cc(-n2nc(C(=O)N(CCO)C(C)(C)C)c3c2-c2cc(-c4ccn(C)n4)c(OC)cc2OC3)c1 [Compound 124, N-tert-butyl-1-(3,5-dimethoxyphenyl)-N-(2-hydroxyethyl)-7-methoxy-8-(1-methyl-1H-pyrazol-3-yl)-1,4-dihydrochromeno[4,3-c]pyrazole-3-carboxamide] was tested. Which pEC50 did it give?
Its pEC50 is 7.00 to 8.00.

With COc1cc2c(cc1-c1ccn(C)n1)-c1c(c(C(=O)N3CCCC3(CO)CC(C)C)nn1-c1ccsc1)CO2 (centres unmarked) [Compound 126, (2-(hydroxymethyl)-2-isobutylpyrrolidin-1-yl)(7-methoxy-8-(1-methyl-1H-pyrazol-3-yl)-1-(thiophen-3-yl)-1,4-dihydrochromeno[4,3-c]pyrazole-3-yl)methanone] as the compound, how does the pEC50 read?
Its pEC50 is 7.00 to 8.00.

How did the pEC50 turn out when CCC1(COC)CCCN1C(=O)c1nn(-c2ccsc2)c2c1COc1cc(OC)c(-c3ccn(C)n3)cc1-2 (centres unmarked) [Compound 128, (2-ethyl-2-(methoxymethyl)pyrrolidin-1-yl)(7-methoxy-8-(1-methyl-1H-pyrazol-3-yl)-1-(thiophen-3-yl)-1,4-dihydrochromeno[4,3-c]pyrazol-3-yl)methanone] was run?
The pEC50 was 7.00 to 8.00.

With COc1cc2c(cc1-c1ccn(C)n1)-c1c(c(C(=O)N3CCC(S(C)(=O)=O)CC3(C)C)nn1-c1ccsc1)CO2 (centres unmarked) [Compound 129, (2,2-dimethyl-4-(methylsulfonyl)piperidin-1-yl)(7-methoxy-8-(1-methyl-1H-pyrazol-3-yl)-1-(thiophen-3-yl)-1,4-dihydrochromeno[4,3-c]pyrazol-3-yl)methanone] as the compound, how does the pEC50 read?
The pEC50 was 7.00 to 8.00.

With COc1cc2c(cc1CC(C)C)-c1c(c(C(=O)N(C)C(C)(C)C#N)nn1-c1ccsc1)CO2 [Compound 133, N-(2-cyanopropan-2-yl)-8-isobutyl-7-methoxy-N-methyl-1-(thiophen-3-yl)-1,4-dihydrochromeno[4,3-c]pyrazole-3-carboxamide] as the compound, how does the pEC50 read?
The pEC50 was > 8.00.

With COc1cc(OC)cc(-n2nc(C(=O)N(C)C(C)(C)C)c3c2-c2cc(-c4nn(C)cc4C(N)=O)c(OC)cc2OC3)c1 [Compound 144, N-tert-butyl-8-(4-carbamoyl-1-methyl-1H-pyrazol-3-yl)-1-(3,5-dimethoxyphenyl)-7-methoxy-N-methyl-1,4-dihydrochromeno[4,3-c]pyrazole-3-carboxamide] as the compound, how does the pEC50 read?
Its pEC50 is < 6.30.

With COc1cc2c(cc1-c1ccc(F)c(C(=O)O)c1)-c1c(c(C(=O)N(C)C(C)(C)C)nn1-c1cc(Cl)cc(Cl)c1)CO2 [Compound 180] as the compound, how does the pEC50 read?
The pEC50 was 7.00 to 8.00.

How did the pEC50 turn out when COc1cc2c(cc1C#CC(N)=O)-c1c(c(C(=O)N(C)C(C)(C)C)nn1-c1ccsc1)CO2 [Compound 186, 8-(3-amino-3-oxoprop-1-ynyl)-N-tert-butyl-7-methoxy-N-methyl-1-(thiophen-3-yl)-1,4-dihydrochromeno[4,3-c]pyrazole-3-carboxamide] was run?
Its pEC50 is 7.00 to 8.00.

Biological target: T2, follicle-stimulating hormone (FSH) receptor (Rattus norvegicus, UniProt P20395)
T2 construct: endogenous in cells; host or cells: rat granulosa cells
T2 sequence (P20395 18-692): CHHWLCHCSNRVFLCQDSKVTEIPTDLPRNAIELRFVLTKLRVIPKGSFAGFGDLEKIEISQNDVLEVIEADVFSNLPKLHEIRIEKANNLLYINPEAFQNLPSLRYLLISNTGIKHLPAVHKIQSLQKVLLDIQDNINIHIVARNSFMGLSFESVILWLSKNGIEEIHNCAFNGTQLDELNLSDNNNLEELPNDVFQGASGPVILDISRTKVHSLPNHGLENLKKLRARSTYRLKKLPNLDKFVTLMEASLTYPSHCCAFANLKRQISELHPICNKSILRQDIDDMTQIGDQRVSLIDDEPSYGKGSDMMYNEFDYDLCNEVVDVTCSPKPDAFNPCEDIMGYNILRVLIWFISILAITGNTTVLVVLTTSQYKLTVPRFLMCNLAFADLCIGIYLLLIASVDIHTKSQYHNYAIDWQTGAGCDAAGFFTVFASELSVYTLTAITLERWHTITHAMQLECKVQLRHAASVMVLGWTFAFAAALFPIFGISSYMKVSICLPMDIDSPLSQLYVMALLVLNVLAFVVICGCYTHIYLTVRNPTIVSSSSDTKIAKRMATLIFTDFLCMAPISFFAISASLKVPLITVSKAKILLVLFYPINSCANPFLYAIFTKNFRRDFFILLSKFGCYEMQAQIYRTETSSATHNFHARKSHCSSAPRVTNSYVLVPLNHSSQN
Assay: Rat granulosa EC50 FSH (Assay B)
Format: cell-based
Details: not given
Experimental: Example 25. Rat granulosa EC50 FSH (Assay B)
The assay was performed pursuant to the teaching of Yanofsky et al. (2006) Allosteric activation of the follicle-stimulating hormone (FSH) receptor by selective, nonpeptide agonists (JBC 281(19): 13226-13233, which is incorporated by reference in the disclosure of the invention).

With CCOC(=O)[C@@H]1C[C@@H]1c1cc2c(cc1OC)OCc1c(C(=O)N(C)C(C)(C)C)nn(-c3cc(Cl)cc(Cl)c3)c1-2 (racemic) [Compound 197, (1RS,2SR)-ethyl 2-(3-(tert-butyl(methyl)carbamoyl)-1-(3,5-dichlorophenyl)-7-methoxy-1,4-dihydrochromeno[4,3-c]pyrazol-8-yl)cyclopropanecarboxylate] as the compound, how does the pEC50 read?
The pEC50 was < 6.30.

With COC(=O)[C@H]1C[C@@H]1c1cc2c(cc1OC)OCc1c(C(=O)N(C)C(C)(C)C)nn(-c3cc(F)cc(F)c3)c1-2 (racemic) [Compound 206] as the compound, how does the pEC50 read?
The pEC50 was 6.30 to 7.00.
